For 15 compounds, IC50 results are on record in patent US10654884B2 (Vitae Pharmaceuticals, Inc., priority 2014, dated 2020).

The structures appear in SMILES notation.

Assay [1] addresses T1, human CD73 (Homo sapiens, UniProt P21589).
T1 construct: purchased R&D Systems 5795-EN-010
T1 sequence (P21589 27-549): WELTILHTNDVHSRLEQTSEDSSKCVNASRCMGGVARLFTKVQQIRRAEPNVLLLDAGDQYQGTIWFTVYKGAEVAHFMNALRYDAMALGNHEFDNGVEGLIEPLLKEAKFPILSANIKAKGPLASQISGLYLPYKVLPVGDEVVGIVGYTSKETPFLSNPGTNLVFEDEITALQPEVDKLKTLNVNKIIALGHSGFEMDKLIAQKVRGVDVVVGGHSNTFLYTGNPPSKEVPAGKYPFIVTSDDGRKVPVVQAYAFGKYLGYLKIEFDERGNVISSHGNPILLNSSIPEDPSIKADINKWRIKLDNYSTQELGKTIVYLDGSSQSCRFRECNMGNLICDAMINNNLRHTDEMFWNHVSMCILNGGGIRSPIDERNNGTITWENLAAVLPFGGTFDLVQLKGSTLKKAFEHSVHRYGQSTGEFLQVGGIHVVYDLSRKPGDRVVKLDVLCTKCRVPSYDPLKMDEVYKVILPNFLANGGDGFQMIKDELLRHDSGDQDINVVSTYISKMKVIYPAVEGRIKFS
The experiment in a line: Inhibition of 5′-Nucleotidase Activity of CD73 (Assay 1). The class given is biochemical. Particulars: human CD73 4 ng/ml, 50 μM CMP, 20 min at RT, malachite green readout; read-out: Assay 1: IC50, inhibition of 5′-nucleotidase activity of CD73. In short, it runs like this:
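Human CD73 (4 ng/ml final) was incubated with 50 μM CMP in 25 mM Tris-HCl pH 7.4, 0.005% Brij-35 for 20 min at RT. Reactions were stopped with malachite green reagent and absorbance was read at 620 nm. IC50 came from a 4-parameter logistic fit.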

For assay [2], the target named is T2, CD73 on U138 neuroglioma cells (Homo sapiens, UniProt P21589).
T2 construct: U138 neuroglioma cells, which express CD73 on their surface; endogenous in cells; host or cells: U138 neuroglioma cells (ATCC)
T2 sequence (P21589 27-549): T1 sequence (P21589 27-549)
The experiment in a line: Inhibition of Ecto-5′-Nucleotidase Activity in U138 Neuroglioma Cells (Assay 2). The class given is cell-based. Particulars: 50 μM CMP, 2 hr at 37° C., malachite green readout, read-out: Assay 2: IC50, inhibition of ecto-5′-nucleotidase activity in U138 neuroglioma cells. The protocol:
Inhibition of Ecto-5′-Nucleotidase Activity in U138 Neuroglioma Cells (Assay 2)
U138 cells were obtained from the American Type Culture Collection (ATCC) (Manassas, Va.), and cultured in complete growth media (DMEM, 10% FBS, 1 mM L-glutamine, 100 U penicillin-streptomycin) at 37° C., 5% CO2. The day before the experiment, cells were seeded at 2,500 cells/well in 100 μL of complete media into 96-well plates. Cells were washed twice with 200 μL of assay buffer (20 mM HEPES, pH 7.4, 137 mM NaCl, 5.4 mM KCl, 1.3 mM CaCl2, 4.2 mM NaHCO3, 1 mg/mL glucose) to remove residual inorganic phosphate. After washing, assays contained serial dilutions of test compounds and 50 μM of cytidine-5′-monophosphate (CMP) in a total volume of 200 μL of assay buffer, with a final DMSO concentration ≤0.1%. After 2 hr at 37° C., 5% CO2, 100 μL of supernatant was removed from the cells and the concentration of inorganic phosphate was determined using malachite green reagent. IC50 values for test compounds were determined from nonlinear regression fits of the data using XLfit (IDBS).

By IC50 is commonly meant the concentration that inhibits the measured activity by half. Turning to `CCOC(=O)[C@@H](OC[C@H]1O[C@@H](n2cnc3c(C)nc(Cl)nc32)[C@H](O)[C@@H]1O)P(=O)(O)O` (single isomer, unassigned) [Example 28a], the half-maximal inhibitory concentration (IC50) in assay [1] is 0.1 to 1 µM; in assay [2] it was over 1 µM.

Take `CCOC(=O)[C@H](OC[C@H]1O[C@@H](n2ccc(=O)n(C)c2=O)[C@H](O)[C@@H]1O)P(=O)(O)O` (single isomer, unassigned) [Example 30]: the IC50 in assay [1] was 0.1 to 1 µM; in assay [2], over 1 µM.

For the compound `CCNC(=O)[C@H](OC[C@H]1O[C@@H](n2cnc3c(NCC)nc(Cl)nc32)[C@H](O)[C@@H]1O)P(=O)(O)O` (single isomer, unassigned) [Example 34], the IC50 was under 0.1 µM in assay [1] and 0.1 to 1 µM in assay [2].

Take `CCNC(=O)[C@@H](OC[C@H]1O[C@@H](n2cnc3c(NCC)nc(Cl)nc32)[C@H](O)[C@@H]1O)P(=O)(O)O` (single isomer, unassigned) [Example 34a]: the IC50 in assay [1] and in assay [2] was under 0.1 µM throughout.

Turning to `CCOC(=O)[C@H](OC[C@H]1O[C@@H](n2cnc3c(NC(=O)c4ccccc4)nc(Cl)nc32)[C@H](O)[C@@H]1O)P(=O)(O)O` (single isomer, unassigned) [Example 36], the figures for the IC50 in assay [1] and in assay [2] were under 0.1 µM and 0.1 to 1 µM, respectively.

As for `CCOC(=O)[C@@H](OC[C@H]1O[C@@H](n2cnc3c(NC(=O)c4ccccc4)nc(Cl)nc32)[C@H](O)[C@@H]1O)P(=O)(O)O` (single isomer, unassigned) [Example 36a], the IC50 is 0.1 to 1 µM in assay [1] and over 1 µM in assay [2].

Consider `CCOC(=O)[C@H](OC[C@@H]1O[C@H](n2cnc3c(N)nc(C)nc32)[C@@H](O)[C@H]1O)P(=O)(O)O` (single isomer, unassigned) [Example 37], for which the IC50 is under 0.1 µM in assay [1] and 0.1 to 1 µM in assay [2].

On to `CCOC(=O)[C@H](OC[C@H]1O[C@@H](n2cnc3c(N)nc(Cc4ccccc4)nc32)[C@H](O)[C@@H]1O)P(=O)(O)O` (single isomer, unassigned) [Example 39], for which the figures for the IC50 in assay [1] and in assay [2] were under 0.1 µM and 0.1 to 1 µM, respectively.

On to `CCOC(=O)[C@@H](OC[C@H]1O[C@@H](n2cnc3c(N)nc(Cc4ccccc4)nc32)[C@H](O)[C@@H]1O)P(=O)(O)O` (single isomer, unassigned) [Example 39a], for which the IC50 in assay [1] and in assay [2] was over 1 µM in each case.

Turning to `CCOC(=O)[C@H](OC[C@H]1O[C@@H](n2cnc3c(N)nc(-c4ccccc4)nc32)[C@H](O)[C@@H]1O)P(=O)(O)O` (single isomer, unassigned) [Example 40], the IC50 is under 0.1 µM in assay [1] and 0.1 to 1 µM in assay [2].

In the case of `CCOC(=O)[C@H](OC[C@H]1O[C@@H](n2cnc3c(N)nc(-c4cc(F)cc(F)c4)nc32)[C@H](O)[C@@H]1O)P(=O)(O)O` (single isomer, unassigned) [Example 41], the IC50 in assay [1] is 0.1 to 1 µM; in assay [2], over 1 µM.

For the compound `CCOC(=O)[C@H](OC[C@H]1O[C@@H](n2cnc3c(N)nc(C(F)(F)F)nc32)[C@H](O)[C@@H]1O)P(=O)(O)O` (single isomer, unassigned) [Example 42], the figures for the IC50 in assay [1] and in assay [2] were under 0.1 µM and 0.1 to 1 µM, respectively.

Consider `CCOC(=O)[C@H](OC[C@H]1O[C@@H](n2cnc3c(N)nc(SCC)nc32)[C@H](O)[C@@H]1O)P(=O)(O)O` (single isomer, unassigned) [Example 44], for which the IC50 in assay [1] and in assay [2] was over 1 µM each time.

`CCOC(=O)[C@H](OC[C@H]1O[C@@H](n2cnc3c(N)nc(C#N)nc32)[C@H](O)[C@@H]1O)P(=O)(O)O` (single isomer, unassigned) [Example 45]: the half-maximal inhibitory concentration (IC50) in assay [1] and in assay [2] was under 0.1 µM throughout.

For `CCOC(=O)[C@@H](OC[C@H]1O[C@@H](n2cnc3c(N)nc(C#N)nc32)[C@H](O)[C@@H]1O)P(=O)(O)O` (single isomer, unassigned) [Example 45a], the IC50 in assay [1] and in assay [2] was 0.1 to 1 µM throughout.
